# Tests used:
# ONC-T18 [1] = test: Fatty acid production antagonist supplementation of ONC-T18 culture, fatty acid profile by FAME GC-FID; assay type: cell-based, Thraustochytrium sp. ONC-T18; conditions: for DHA accumulated in ONC-T18, change versus control (in words): antagonist added to medium
# Method: Media containing 25 g/l sea salt and 1 g/l yeast extract was autoclaved at 120° C. for 20 minutes. Sterilized glucose was added to the media at a concentration of 9 g/l. Sethoxydim (Supleco) was dissolved in dimethyl sulfoxide at a concentration of 5 mg/ml was then added to the media at to represent a final concentration of 100 µM. 1 ml of a 24 hour pre-culture of ONC-T 18 that had been cultured in the same media was added. Culturing was carried out in a shaker (130 rpm) for four days at room temperature. After the incubation period, cells were harvested by centrifugation at 4300 rpm for 10 minutes. The cell pellets were then freeze-dried, weighed and the oil was extracted from the cells.
# (§1) The lipids were extracted and derivatized to fatty acid methyl esters (FAME) for gas chromatography analysis (GC). Transesterification and extraction was done using 200 mg freeze dried cells, with C19:0 as internal standard, added transesterification reaction mix (methanol:hydrochloric acid:chloroform, 10:1:1) mixed and heated at 90° C. for 2 hours, then allowed to cool at room temperature. FAMEs were extracted by adding 1 ml water, and 2 ml hexane:chloroform (4:1), and allow organic and aqueous phases to separate. The organic layer was extracted and treated with 0.5 g of anhydrous sodium sulfate to remove particulates and residual water. The organic solvents were evaporated under a stream of argon. The FAMEs were re-suspended in 5 ml of iso-octane and analyzed by GC-FID. The percent conversion was calculated by dividing the product produced by the sum of (the product produced plus the substrate added) and then multiplying by 100.
# Media containing 6 g/l sea salt, 2 g/l yeast extract, and 8 g/l L-glutamic acid monosodium salt hydrate was autoclaved at 120° C. for 20 minutes. Sterilized D+-glucose was then added to this media at a concentration of 40 g/l. Cerulenin dissolved in ethanol at a concentration of 5 mg/ml was added to 250 ml flask and the solvent was evaporated for 1 hour prior to adding the media to the flask. The amount of cerulenin in the flask represented a final concentration of 20 mg/l. ONC-T18 was then added to the medium from a plate culture and culturing occurred in a shaker (130 rpm) at room temperature for four days. After the incubation period, cells were harvested by centrifugation at 4300 rpm for 10 minutes, washed once with distilled water, and then centrifuged again at 4300 rpm for 10 minutes. The cell pellets were then freeze-dried, weighed and the oil was extracted from the cells.
# as §1, with “produced+the” for “produced plus the”
# Media containing 6 g/l sea salt, 2 g/l yeast extract, and 8 g/l L-glutamic acid monosodium salt hydrate was autoclaved at 120° C. for 20 minutes. Sterilized D+-glucose wad then added at a concentration of 5 g/l or was not added to the media. Oleic acid was added to the media to represent a final concentration of 2 ml/l. […]
# ONC-T18 [2] = test: Carotenoid content of ONC-T18 exposed to Norflurazon; assay type: cell-based, Thraustochytrium sp. ONC-T18
# Method: Cells were harvested by centrifugation at 3800×g and washed with phosphate buffered saline. Then resuspended in 10× volume of acetone (Sigma-Aldrich, St Louis, Mo., USA), agitated for 5 minutes at 200 RPM, centrifuged at 3,800×g for 5 mins and concentrated to dryness by N2 evaporation. Followed by resuspension in a minimal amount of 10% acetone in hexane prior to HPLC analysis. Identifications were carried out on an Agilent 1100 HPLC (Agilent, Palo Alto, Calif., USA) equipped with a variable wavelength detector set at 470 nm. Samples were injected through a Symmetry C18 guard column (Waters, Milford, Mass., USA) to a Bondclone C18 reverse-phase column (Phenomenex, Torrance, Calif., USA; […] particles; 3.9×300 mm i.d.). The injection volume was 10 μl and a flow of 1 ml min^−1 10% acetone in hexane over a 25 minute period was used. Carotenoid identity was further confirmed with mass spectrometry analysis (Micromass ESI-QT of MS, Waters, Milford, Mass., USA). Quantitative data for each carotenoid was based on the development of a calibration curve using standards (astaxanthin, zeaxanthin, canthaxanthin, echinenone and β-carotene) and comparing peak area with defined concentrations.
# [3] = presence of the antagonist, oleic acid without glucose
smiles,measurement,setting,value
CNc1cnn(-c2cccc(C(F)(F)F)c2)c(=O)c1Cl [norflurazon],"DHA accumulated in ONC-T18, change versus control (in words)",ONC-T18 [1],increase in the content and proportion of DHA
same,"DHA accumulated in ONC-T18, change versus control (in words)",ONC-T18 [1]; listed as Norflurazon,DHA increase
same,proportion of PUFA in ONC-T18 fatty acid profile (in words),ONC-T18 [1]; increasing amount added,proportion of PUFA increased
same,"adrenic acid, lipid as percentage of total fatty acid",ONC-T18 [1]; [3],0.17%
same,"arachidic acid, lipid as percentage of total fatty acid",ONC-T18 [1]; [3],0.16%
same,"arachidonic acid, lipid as percentage of total fatty acid",ONC-T18 [1]; [3],0.19%
same,"behenic acid, lipid as percentage of total fatty acid",ONC-T18 [1]; [3],0.05%
same,"docosadienoic acid, lipid as percentage of total fatty acid",ONC-T18 [1]; [3],0.03%
same,"docosahexaenoic acid, lipid as percentage of total fatty acid",ONC-T18 [1]; [3],20.61%
same,"docosapentaenoic acid n-3, lipid as percentage of total fatty acid",ONC-T18 [1]; [3],0.19%
same,"docosapentaenoic acid n-6, lipid as percentage of total fatty acid",ONC-T18 [1]; [3],5.23%
same,"eicosadienoic acid, lipid as percentage of total fatty acid",ONC-T18 [1]; [3],0.13%
same,"eicosapentaenoic acid, lipid as percentage of total fatty acid",ONC-T18 [1]; [3],0.76%
same,"eicosatetraenoic acid, lipid as percentage of total fatty acid",ONC-T18 [1]; [3],0.24%
same,"eicosatrienoic acid, lipid as percentage of total fatty acid",ONC-T18 [1]; [3],0.00%
same,"eicosenoic acid, lipid as percentage of total fatty acid",ONC-T18 [1]; [3],0.02%
same,"heneicosapentaenoic acid, lipid as percentage of total fatty acid",ONC-T18 [1]; [3],0.00%
same,"hexacosanoic acid, lipid as percentage of total fatty acid",ONC-T18 [1]; [3],0.00%
same,"homo-gamma-linolenic acid, lipid as percentage of total fatty acid",ONC-T18 [1]; [3],0.18%
same,"lignoceric acid, lipid as percentage of total fatty acid",ONC-T18 [1]; [3],0.00%
same,"margaric acid, lipid as percentage of total fatty acid",ONC-T18 [1]; [3],1.03%
same,"myristic acid, lipid as percentage of total fatty acid",ONC-T18 [1]; [3],11.08%
same,"myristoleic acid, lipid as percentage of total fatty acid",ONC-T18 [1]; [3],0.12%
same,"nervonic acid, lipid as percentage of total fatty acid",ONC-T18 [1]; [3],0.00%
same,"oleic acid, lipid as percentage of total fatty acid",ONC-T18 [1]; [3],0.00%
same,"palmitic acid, lipid as percentage of total fatty acid",ONC-T18 [1]; [3],40.61%
same,"palmitoleic acid, lipid as percentage of total fatty acid",ONC-T18 [1]; [3],10.65%
same,"pentadecanoic acid, lipid as percentage of total fatty acid",ONC-T18 [1]; [3],3.16%
same,"pentadecenoic acid, lipid as percentage of total fatty acid",ONC-T18 [1]; [3],0.33%
same,"stearic acid, lipid as percentage of total fatty acid",ONC-T18 [1]; [3],1.52%
same,"vaccenic acid, lipid as percentage of total fatty acid",ONC-T18 [1]; [3],3.53%
same,carotenoid content of ONC-T18 (in words),ONC-T18 [2],carotenoid content decreased

# From patent publication US9023616B2, “Oil producing microbes and method of modification thereof” (DSM Nutritional Products AG, priority 2006, dated 2015)
